Assay results: US20260035359A1, “HERBICIDAL IMIDAZOLE COMPOUNDS” (SYNGENTA CROP PROTECTION AG, priority 2022, published 2026)

Key:
Format in all cases: in vivo
[1] = tested on: Echinochloa crus-gali (ECHCG); test: Pre-emergence herbicidal glasshouse test; details: 250 g/ha, sprayed after one day cultivation, evaluated after 13 days
Description: (§1) Seeds of a variety of test species are sown in standard soil in pots Amaranthus pa/meri (AMAPA), Amaranthus retoflexus (AMARE), Echinochloa crus-gali (ECHCG), Ipomoea hederacea (IPOHE), Setaria faberi (SETFA). After cultivation for one day (pre-emergence) or after 8 days cultivation (post-emergence) under controlled conditions in a glasshouse (at 24/16° C., day/night; 14 hours light; 65% humidity), the plants are sprayed with an aqueous spray solution derived from the formulation of the technical active ingredient in acetone/water (50:50) solution containing 0.5% Tween 20 (polyoxyethelyene sorbitan monolaurate, CAS RN 9005-64-5). Compounds are applied at 250 g/ha unless otherwise stated. The test plants are then grown in a glasshouse under controlled conditions in a glasshouse (at 24/16° C., day/night; 14 hours light; 65% humidity) and watered twice daily. After 13 days for pre and post-emergence, the test is evaluated for the percentage damage caused to the plant. The biological activities are shown in the following table on a five-point scale (5=81-100%; 4=61-80%; 3=41-60%; 2=21-40%; 1=0-20%).

[2] = tested on: Ipomoea hederacea (IPOHE); test: Pre-emergence herbicidal glasshouse test; details: 250 g/ha, sprayed after one day cultivation, evaluated after 13 days
Description: as §1

[3] = tested on: Amaranthus pa/meri (AMAPA); test: Pre-emergence herbicidal glasshouse test; details: 250 g/ha, sprayed after one day cultivation, evaluated after 13 days
Description: as §1

Setaria faberi (SETFA) [4] = test: Pre-emergence herbicidal glasshouse test; details: 250 g/ha, sprayed after one day cultivation, evaluated after 13 days
Description: as §1

[5] = tested on: Amaranthus retoflexus (AMARE); test: Pre-emergence herbicidal glasshouse test; details: 250 g/ha, sprayed after one day cultivation, evaluated after 13 days
Description: as §1

[6] = tested on: Echinochloa crus-gali (ECHCG); test: Post-emergence herbicidal glasshouse test; details: 250 g/ha, sprayed after 8 days cultivation, evaluated after 13 days
Description: as §1

[7] = tested on: Ipomoea hederacea (IPOHE); test: Post-emergence herbicidal glasshouse test; details: 250 g/ha, sprayed after 8 days cultivation, evaluated after 13 days
Description: as §1

[8] = tested on: Amaranthus pa/meri (AMAPA); test: Post-emergence herbicidal glasshouse test; details: 250 g/ha, sprayed after 8 days cultivation, evaluated after 13 days
Description: as §1

Setaria faberi (SETFA) [9] = test: Post-emergence herbicidal glasshouse test; details: 250 g/ha, sprayed after 8 days cultivation, evaluated after 13 days
Description: as §1

[10] = tested on: Amaranthus retoflexus (AMARE); test: Post-emergence herbicidal glasshouse test; details: 250 g/ha, sprayed after 8 days cultivation, evaluated after 13 days
Description: as §1

| SMILES | percentage damage caused to the plant, ECHCG [1] | percentage damage caused to the plant, IPOHE [2] | percentage damage caused to the plant, AMAPA [3] | percentage damage caused to the plant, SETFA (Setaria faberi (SETFA) [4]) | percentage damage caused to the plant, AMARE [5] | percentage damage caused to the plant, ECHCG [6] | percentage damage caused to the plant, IPOHE [7] | percentage damage caused to the plant, AMAPA [8] | percentage damage caused to the plant, SETFA (Setaria faberi (SETFA) [9]) | percentage damage caused to the plant, AMARE [10] |
| --- | --- | --- | --- | --- | --- | --- | --- | --- | --- | --- |
| FC(F)(F)CCc1nc(C(F)(F)F)cn1Cc1ncc(Cl)cn1 [Compound 1.002, 5-chloro-2-[[4-(trifluoromethyl)-2-(3,3,3-trifluoropropyl)imidazol-1-yl]methyl]pyrimidine] | 5 (5=81-100%) | 5 (5=81-100%) | 5 (5=81-100%) | 5 (5=81-100%) | 5 (5=81-100%) | 5 (5=81-100%) | 5 (5=81-100%) | 5 (5=81-100%) | 5 (5=81-100%) | 5 (5=81-100%) |
| FC(F)(F)CCCc1nc(Br)cn1Cc1ncc(Cl)cn1 [Compound 1.003, 2-[[4-bromo-2-(4,4,4-trifluorobutyl)imidazol-1-yl]methyl]-5-chloro-pyrimidine] | 1 (1=0-20%) | 2 (2=21-40%) | 1 (1=0-20%) | 1 (1=0-20%) | 1 (1=0-20%) | 1 (1=0-20%) | 2 (2=21-40%) | 2 (2=21-40%) | 1 (1=0-20%) | 2 (2=21-40%) |
| FC(F)(F)CCCc1nc(Cl)c(Cl)n1Cc1ncc(Cl)cn1 [Compound 1.004, 5-chloro-2-[[4,5-dichloro-2-(4,4,4-trifluorobutyl)imidazol-1-yl]methyl]pyrimidine] | 3 (3=41-60%) | 2 (2=21-40%) | 5 (5=81-100%) | 4 (4=61-80%) | 5 (5=81-100%) | 3 (3=41-60%) | 3 (3=41-60%) | 4 (4=61-80%) | 4 (4=61-80%) | 4 (4=61-80%) |
| OCCCc1nc(C(F)(F)F)cn1Cc1ncc(Cl)cn1 [Compound 1.008, 3-[1-[(5-chloropyrimidin-2-yl)methyl]-4-(trifluoromethyl)imidazol-2-yl]propan-1-ol] | 2 (2=21-40%) | 1 (1=0-20%) | 1 (1=0-20%) | 1 (1=0-20%) | 1 (1=0-20%) | 1 (1=0-20%) | 1 (1=0-20%) | 1 (1=0-20%) | 1 (1=0-20%) | 1 (1=0-20%) |
| OCC(O)CCc1nc(C(F)(F)F)cn1Cc1ncc(Cl)cn1 (stereo not shown) [Compound 1.011, 4-[1-[(5-chloropyrimidin-2-yl)methyl]-4-(trifluoromethyl)imidazol-2-yl]butane-1,2-diol] | 1 (1=0-20%) | 1 (1=0-20%) | 1 (1=0-20%) | 1 (1=0-20%) | 1 (1=0-20%) | 1 (1=0-20%) | 3 (3=41-60%) | 2 (2=21-40%) | 1 (1=0-20%) | 2 (2=21-40%) |
| C=CCCc1nc(C(F)(F)F)cn1Cc1ncc(Cl)cn1 [Compound 1.020, 2-[[2-but-3-enyl-4-(trifluoromethyl)imidazol-1-yl]methyl]-5-chloro-pyrimidine] | 5 (5=81-100%) | 4 (4=61-80%) | 5 (5=81-100%) | 4 (4=61-80%) | 5 (5=81-100%) | 2 (2=21-40%) | 2 (2=21-40%) | 2 (2=21-40%) | 1 (1=0-20%) | 3 (3=41-60%) |
| CC(C)Cc1nc(C(F)(F)F)cn1Cc1ncc(Cl)cn1 [Compound 1.021] | 1 (1=0-20%) | 4 (4=61-80%) | 5 (5=81-100%) | 1 (1=0-20%) | 3 (3=41-60%) | 1 (1=0-20%) | 3 (3=41-60%) | 3 (3=41-60%) | 1 (1=0-20%) | 3 (3=41-60%) |
| FC(F)COCc1nc(C(F)(F)F)cn1Cc1ncc(Cl)cn1 [Compound 1.022] | 1 (1=0-20%) | 4 (4=61-80%) | 2 (2=21-40%) | 1 (1=0-20%) | 3 (3=41-60%) | 1 (1=0-20%) | 3 (3=41-60%) | 3 (3=41-60%) | 1 (1=0-20%) | 3 (3=41-60%) |
| COCc1nc(C(F)(F)F)cn1Cc1ncc(Cl)cn1 [Compound 1.023] | 1 (1=0-20%) | 1 (1=0-20%) | 2 (2=21-40%) | 1 (1=0-20%) | 2 (2=21-40%) | 1 (1=0-20%) | 2 (2=21-40%) | 1 (1=0-20%) | 1 (1=0-20%) | 1 (1=0-20%) |
| FC(F)(F)CCCc1nc(C(F)(F)F)cn1Cc1ncc(Cl)cn1 [Compound 1.025] | 5 (5=81-100%) | 5 (5=81-100%) | 5 (5=81-100%) | 5 (5=81-100%) | 5 (5=81-100%) | 5 (5=81-100%) | 4 (4=61-80%) | 5 (5=81-100%) | 5 (5=81-100%) | 5 (5=81-100%) |
| CCCCc1nc(C(F)(F)F)cn1Cc1ncc(Cl)cn1 [Compound 1.026] | 3 (3=41-60%) | 3 (3=41-60%) | 5 (5=81-100%) | 5 (5=81-100%) | 5 (5=81-100%) | 2 (2=21-40%) | 4 (4=61-80%) | 5 (5=81-100%) | 2 (2=21-40%) | 5 (5=81-100%) |
| CC(=O)CCc1nc(C(F)(F)F)cn1Cc1ncc(Cl)cn1 [Compound 1.027] | 1 (1=0-20%) | 1 (1=0-20%) | 1 (1=0-20%) | 1 (1=0-20%) | 4 (4=61-80%) | 1 (1=0-20%) | 2 (2=21-40%) | 2 (2=21-40%) | 1 (1=0-20%) | 2 (2=21-40%) |
| FC(F)c1ccn(CCc2nc(C(F)(F)F)cn2Cc2ncc(Cl)cn2)n1 [Compound 1.032] | 5 (5=81-100%) | 5 (5=81-100%) | 5 (5=81-100%) | 5 (5=81-100%) | 5 (5=81-100%) | 3 (3=41-60%) | 4 (4=61-80%) | 4 (4=61-80%) | 3 (3=41-60%) | 5 (5=81-100%) |
